Each structure is given as a SMILES string. pKi: −log10 of the molar value.

The target of one assay is TAAR1 (Mus musculus, UniProt Q923Y8). Briefly: TAAR1 radioligand binding, membranes of stably transfected HEK293 cells (mouse).
Conditions: not given
Summed up:
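Competition binding on membranes from HEK293 cells stably expressing the TAAR1 species ortholog, in HEPES-NaOH pH 7.0 with 10 mM MgCl2 and 2 mM CaCl2, 30 min at 4° C with [3H]-rac-2-(1,2,3,4-tetrahydro-1-naphthyl)-2-imidazoline. Competitors 10 pM–30 μM, duplicates; non-specific binding with 10 μM unlabelled ligand; filtration and scintillation counting.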
Regarding `NC1=NC(c2ccc(Cl)cc2Cl)CO1` (racemic) [Example 235, (RS)-4-(2,4-Dichloro-phenyl)-4,5-dihydro-oxazol-2-ylamine], the negative-log Ki (pKi) is 9.00.

The molecule `NC1=NC(c2ccc(Cl)cc2)CO1` (racemic) [Example 5, (RS)-4-(4-Chloro-phenyl)-4,5-dihydro-oxazol-2-ylamine] showed a pKi of 8.68.

In the case of `Cc1cc(F)ccc1C1COC(N)=N1` (racemic) [Example 337, (RS)-4-(4-Fluoro-2-methyl-phenyl)-4,5-dihydro-oxazol-2-ylamine], the pKi was 8.47.

In the case of `NC1=NC(CCc2ccccc2)CO1` (racemic) [D, (RS)-4-Phenethyl-4,5-dihydro-oxazol-2-ylamine, reference compound], the pKi is 9.00.

Regarding `NC1=NC(c2cc(F)ccc2C(F)(F)F)CO1` (racemic) [Example 249, (RS)-4-(5-Fluoro-2-trifluoromethyl-phenyl)-4,5-dihydro-oxazol-2-ylamine], the pKi is 8.12.

`NC1=NC(c2ccc(OC(F)(F)F)cc2)CO1` (racemic) [Example 12, (RS)-4-(4-Trifluoromethoxy-phenyl)-4,5-dihydro-oxazol-2-ylamine] showed a negative logarithm of the Ki (pKi) of 8.10.

The molecule `NC1=NC(c2ccccc2Br)CO1` (racemic) [Example 237, (RS)-4-(2-Bromo-phenyl)-4,5-dihydro-oxazol-2-ylamine] showed a pKi of 8.60.

On to `COc1ccc(C2COC(N)=N2)cc1C` (racemic) [Example 35, (RS)-4-(4-Methoxy-3-methyl-phenyl)-4,5-dihydro-oxazol-2-ylamine], for which the negative logarithm of the Ki (pKi) was 8.48.

For the molecule `Cc1ccc(C2COC(N)=N2)cc1Cl` (racemic) [Example 351, (RS)-4-(3-Chloro-4-methyl-phenyl)-4,5-dihydro-oxazol-2-ylamine], the pKi is 8.62.

The assay is the same for the next values; noted with them: mouse/rat; cell not marked 'rat'; radioligand [3H]-rac-2-(1,2,3,4-tetrahydro-1-naphthyl)-2-imidazoline, 4° C.; read-out: Ki (μM) mouse/rat.
For the molecule `NC1=N[C@@H](c2ccccc2C(F)(F)F)CO1` [Example 122, (S)-4-(2-Trifluoromethyl-phenyl)-4,5-dihydro-oxazol-2-ylamine], the Ki is 0.0034 µM.

`NC1=N[C@@H](c2cccc(Cl)c2)CO1` [Example 192, (+)-(S)-4-(3-Chloro-phenyl)-4,5-dihydro-oxazol-2-ylamine]: the Ki worked out at 0.0019 µM.

On to `NC1=N[C@@H](CCc2ccc(OC(F)(F)F)c(Cl)c2)CO1` [Example 150, (S)-4-[2-(3-Chloro-4-trifluoromethoxy-phenyl)-ethyl]-4,5-dihydro-oxazol-2-ylamine], for which the Ki was 0.0009 µM.

For the molecule `NC1=N[C@@H](c2ccc(Cl)cc2)CO1` [Example 169, (S)-4-(4-Chloro-phenyl)-4,5-dihydro-oxazol-2-ylamine], the Ki worked out at 0.0014 µM.

Take `NC1=N[C@@H](Cc2ccc3ccccc3c2)CO1` [Example 49, (S)-4-Naphthalen-2-ylmethyl-4,5-dihydro-oxazol-2-ylamine]: the Ki is 0.0054 µM.

As for `NC1=N[C@@H](c2cc(F)ccc2C(F)(F)F)CO1` [Example 259, (+)-(S)-4-(5-Fluoro-2-trifluoromethyl-phenyl)-4,5-dihydro-oxazol-2-ylamine], the Ki came out at 0.0088 µM.

As to `NC1=N[C@@H](COCc2ccccc2)CO1` [Example 350, (S)-4-Benzyloxymethyl-4,5-dihydro-oxazol-2-ylamine], the Ki turned out to be 0.0064 µM.

As for `COc1ccc([C@H]2COC(N)=N2)cc1Cl` [Example 131, (S)-4-(3-Chloro-4-methoxy-phenyl)-4,5-dihydro-oxazol-2-ylamine], the Ki was determined as 0.0024 µM.

On to `NC1=N[C@@H](c2cccc(Br)c2)CO1` [Example 198, (+)-(S)-4-(3-Bromo-phenyl)-4,5-dihydro-oxazol-2-ylamine], for which the Ki was found to be 0.002 µM.

As for `C[C@]1(c2ccc(C(F)(F)F)cc2)COC(N)=N1` [Example 147, (S)-4-Methyl-4-(4-trifluoromethyl-phenyl)-4,5-dihydro-oxazol-2-ylamine], the Ki is 0.0041 µM.

In the case of `NC1=N[C@@H](c2ccc(F)cc2C(F)(F)F)CO1` [Example 248, (+)-(S)-4-(4-Fluoro-2-trifluoromethyl-phenyl)-4,5-dihydro-oxazol-2-ylamine], the Ki is 0.0029 µM.

Regarding `NC1=N[C@@H](CCc2ccc(F)cc2F)CO1` [Example 88], the Ki was 0.001 µM.

Turning to `NC1=N[C@@H](CCc2cccc(C(F)(F)F)c2F)CO1` [Example 142, (S)-4-[2-(2-Fluoro-3-trifluoromethyl-phenyl)-ethyl]-4,5-dihydro-oxazol-2-ylamine], the Ki is 0.0018 µM.

For `NC1=N[C@@H](c2ccc(Br)cc2C(F)(F)F)CO1` [Example 338, (+)-(S)-4-(4-Bromo-2-trifluoromethyl-phenyl)-4,5-dihydro-oxazol-2-ylamine], the Ki is 0.0031 µM.

In the case of `NC1=N[C@@H](CCc2cccc(Cl)c2Cl)CO1` [Example 149, (S)-4-[2-(2,3-Dichloro-phenyl)-ethyl]-4,5-dihydro-oxazol-2-ylamine], the Ki was found to be 0.0019 µM.

As for `CCC(C[C@H]1COC(N)=N1)c1ccc(Cl)cc1` (stereo partly drawn) [Example 162, (S)-4-[2-(4-Chloro-phenyl)-butyl]-4,5-dihydro-oxazol-2-ylamine], the Ki turned out to be 0.0025 µM.

`NC1=N[C@@H](CCc2cc(F)cc(C(F)(F)F)c2)CO1` [Example 159, (S)-4-[2-(3-Fluoro-5-trifluoromethyl-phenyl)-ethyl]-4,5-dihydro-oxazol-2-ylamine]: the Ki came out at 0.001 µM.

As for `NC1=N[C@@H](c2ccc(F)c(F)c2F)CO1` [Example 301, (+)-(S)-4-(2,3,4-Trifluoro-phenyl)-4,5-dihydro-oxazol-2-ylamine], the Ki was found to be 0.0023 µM.

For the molecule `NC1=N[C@@H](CCc2cccc(OC(F)(F)C(F)F)c2)CO1` [Example 141, (S)-4-{2-[3-(1,1,2,2-Tetrafluoro-ethoxy)-phenyl]-ethyl}-4,5-dihydro-oxazol-2-ylamine], the Ki was found to be 0.0027 µM.

Consider `NC1=N[C@@H](c2cc(Cl)ccc2F)CO1` [Example 190, (+)-(S)-4-(5-Chloro-2-fluoro-phenyl)-4,5-dihydro-oxazol-2-ylamine], for which the Ki worked out at 0.0008 µM.

As for `NC1=N[C@@H](c2cccc(F)c2F)CO1` [Example 9, (S)-4-(2,3-Difluoro-phenyl)-4,5-dihydro-oxazol-2-ylamine], the Ki was 0.0034 µM.

`C[C@]1(CCc2ccccc2)COC(N)=N1` [Example 81 (S), (S)-4-Methyl-4-phenethyl-4,5-dihydro-oxazol-2-ylamine]: the Ki turned out to be 0.0064 µM.

Consider `C[C@]1(c2cc(F)ccc2F)COC(N)=N1` [Example 187, (S)-4-(2,5-Difluoro-phenyl)-4-methyl-4,5-dihydro-oxazol-2-ylamine], for which the Ki was 0.0021 µM.

The target in a further assay is TAAR1 (Rattus norvegicus, UniProt Q923Y9). Nature of the assay: TAAR1 radioligand binding, membranes of stably transfected HEK293 cells (rat). As to conditions: cell marked 'rat'; radioligand [3H]-rac-2-(1,2,3,4-tetrahydro-1-naphthyl)-2-imidazoline, 4° C.; read-out: Ki (μM) mouse/rat. The procedure:
For the construction of expression plasmids the coding sequences of human, rat and mouse TAAR 1 were amplified from genomic DNA essentially as described by Lindemann et al.. The Expand High Fidelity PCR System (Roche Diagnostics) was used with 1.5 mM Mg^2+ and purified PCR products were cloned into pCR2.1-TOPO cloning vector (Invitrogen) following the instructions of the manufacturer. PCR products were subcloned into the pIRESneo2 vector (BD Clontech, Palo Alto, Calif.), and expression vectors were sequence verified before introduction in cell lines.
HEK293 cells (ATCC #CRL-1573) were cultured essentially as described Lindemann et al. (2005). For the generation of stably transfected cell lines HEK293 cells were transfected with the pIRESneo2 expression plasmids containing the TAAR coding sequences (described above) with Lipofectamine 2000 (Invitrogen) according to the instructions of the manufacturer, and 24 hrs post transfection the culture medium was supplemented with 1 mg/ml G418 (Sigma, Buchs, Switzerland). After a culture period of about 10 d clones were isolated, expanded and tested for responsiveness to trace amines (all compounds purchased from Sigma) with the cAMP Biotrak Enzyme immunoassay (EIA) System (Amersham) following the non-acetylation EIA procedure provided by the manufacturer.
Cells at confluence were rinsed with ice-cold phosphate buffered saline without Ca^2+ and Mg^2+ containing 10 mM EDTA and pelleted by centrifugation at 1000 rpm for 5 min at 4° C. The pellet was then washed twice with ice-cold phosphate buffered saline and cell pellet was frozen immediately by immersion in liquid nitrogen and stored until use at −80° C. Cell pellet was then suspended in 20 ml HEPES-NaOH (20 mM), pH 7.4 containing 10 mM EDTA, and homogenized with a Polytron (PT 3000, Kinematica) at 10,000 rpm for 10 s. The homogenate was centrifuged at 48,000×g for 30 min at 4° C. and the pellet resuspended in 20 ml HEPES-NaOH (20 mM), pH 7.4 containing 0.1 mM EDTA (buffer A), and homogenized with a Polytron at 10,000 rpm for 10 s. The homogenate was then centrifuged at 48,000×g for 30 min at 4° C. and the pellet resuspended in 20 ml buffer A, and homogenized with a Polytron at 10,000 rpm for 10 s. Protein concentration was determined by the method of Pierce (Rockford, Ill.). The homogenate was then centrifuged at 48,000×g for 10 min at 4° C., resuspended in HEPES-NaOH (20 mM), pH 7.0 including MgCl2 (10 mM) and […] homogenized with a Polytron at 10,000 rpm for 10 s.
Binding assay was performed at 4° C. in a final volume of 1 ml, and with an incubation time of 30 min. […] Non-specific binding was defined as the amount of [^3H]-rac-2-(1,2,3,4-tetrahydro-1-naphthyl)-2-imidazoline bound in the presence of the appropriate unlabelled ligand (10 μM). Competing ligands were tested in a wide range of concentrations (10 pM-30 μM). […] Each experiment was performed in duplicate. All incubations were terminated by rapid filtration through UniFilter-96 plates (Packard Instrument Company) and glass filter GF/C, pre-soaked for at least 2 h in polyethylenimine 0.3%, and using a Filtermate 96 Cell Harvester (Packard Instrument Company). The tubes and filters were then washed 3 times with 1 ml aliquots of cold buffer B. Filters were not dried and soaked in Ultima gold (45 μl/well, Packard Instrument Company) and bound radioactivity was counted by a TopCount Microplate Scintillation Counter (Packard Instrument Company).
Regarding `NC1=N[C@@H](c2ccc(Br)cc2Cl)CO1` [Example 316, (+)-(S)-4-(4-Bromo-2-chloro-phenyl)-4,5-dihydro-oxazol-2-ylamine], the Ki worked out at 0.0003 µM.

For the molecule `CC1(c2ccc(F)cc2Cl)COC(N)=N1` (racemic) [Example 318, (RS)-4-(2-Chloro-4-fluoro-phenyl)-4-methyl-4,5-dihydro-oxazol-2-ylamine], the Ki turned out to be 0.002 µM.

As to `NC1=N[C@@H](COc2ccc(Cl)c(Cl)c2)CO1` [Example 284, (S)-4-(3,4-Dichloro-phenoxymethyl)-4,5-dihydro-oxazol-2-ylamine], the Ki came to 0.0028 µM.

For the molecule `NC1=N[C@H](c2ccc(Br)cc2Cl)CO1` [Example 315, (−)-(R)-4-(4-Bromo-2-chloro-phenyl)-4,5-dihydro-oxazol-2-ylamine], the Ki was determined as 0.0016 µM.

The record behind these values is patent US8604061B2, “2-aminooxazolines as TAAR1 ligands” (Hoffmann-La Roche Inc., priority 2007, dated 2013).
